{
  "source": "patent US11628172B2",
  "about": "“Methods of treating chronic lymphocytic leukemia using 2-(2,6-dioxopiperidin-3-yl)-4-((2-fluoro-4-((3-morpholinoazetidin-1-yl)methyl)benzyl)amino)isoindoline-1,3-dione” (Celgene Corporation, priority 2019, dated 2023)",
  "key": {"EHEB CLL cell line": {"tested_on": "EHEB CLL cell line", "assay": "Cell proliferation and viability assay (384-well flow cytometry, Annexin V/DRAQ7), EHEB", "format": "cell-based", "conditions": "120 hours", "description": "(§1) The following are examples of cell-based assays that can be used to determine the anti-proliferative activity and apoptotic effect of compounds described herein using exemplary CLL cell lines (Table 3). The in vitro growth inhibitory activity of Compound 1 described herein was evaluated using a 384-well flow cytometry assay.\n(§2) The cell lines were plated under the conditions shown in Table 3 in 384-well flat bottom plates and incubated with increasing concentrations of compound ranging from 0.00015 to 10 μM or dimethyl sulfoxide (DMSO) control. The final concentration of DMSO was 0.1% (v/v). Following the addition of Compound 1 or DMSO and incubation for 120 hours, cell number and cell death were analyzed by flow cytometry (Attune®, Thermo Fisher) using Annexin V and the live-cell impermeant DNA dye, DRAQ7. […]\n(§3) Flow cytometry data analysis was then performed using the Flow Jo_v10 software to determine the number of viable cells (Annexin V and DRAQ7 double negative staining cells) and percentage of apoptotic cells (Annexin V positive cells) for each condition. […] The IC50 (50% inhibitory concentration) and Emax (maximum efficacy achieved) values were then calculated by performing nonlinear regression curve fitting using log (inhibitor) vs. normalized response—variable slope analysis on GraphPad Prism 7.03. […]"}, "CII CLL cell line": {"tested_on": "CII CLL cell line", "assay": "Cell proliferation and viability assay (384-well flow cytometry, Annexin V/DRAQ7), CII", "format": "cell-based", "conditions": "120 hours", "description": "as §1, §2, §3"}, "[1]": {"tested_on": "primary CLL cells from patient-derived blood (CD5+CD19+ tumor cells)", "assay": "Compound 1 in combination with obinutuzumab in B-cell CLL patient cells (ex vivo co-culture, flow cytometry, Caspase3)", "format": "cell-based, human", "conditions": "single agent (Cpd1 DRC with DMSO, or obinutuzumab alone), 144 h, apoptosis (Caspase 3), DMSO baseline subtracted", "description": "Obinutuzumab (GA101) is a humanized, glycoengineered type 2 antibody targeted against CD20. […] The effect of treatment with Compound 1 in combination with obinutuzumab on the proliferation and survival of CLL B cells was assessed utilizing an ex vivo model where primary CLL cells from patient-derived blood were stimulated to proliferate with 10% fetal bovine serum (FBS), 5 ng/mL recombinant human interleukine-4 (rh IL-4), 10 ng/mL recombinant human interleukine-10 (rh IL-10) and co-cultured with fibroblast expressing surface CD154 (CD40L) in a 96 well plate format.\nPeripheral blood mononuclear cells (PBMCs) from CLL patients (Table 7) containing 52%-86% of CD5^+CD19^+ tumor cells were cultured at a density of 0.06-0.1×10^6 cells/well on a monolayer of CD154-expressing fibroblasts at a density of 0.09×10^6 cells/well in 96-well plates in RPMI 1640 medium supplemented with 10% FBS, 5 ng/mL rh IL-4 and 10 ng/mL rh IL-10. The cells were treated with vehicle control (0.1% DMSO) or increasing concentrations of Compound 1 ranging from 0.0001 to 1 μM and GA101 at concentrations ranging from 8 ng/mL to 5 ug/mL across all the different concentrations of Compound 1. After 144 h of treatment with both the agents, flow cytometric analysis was used to determine the number of tumor cells that were viable or apoptotic.\nThe tumor cell count was assessed by staining the patient PBMCs in each condition with tumor cell surface markers CD5 & CD19 along with Live/Dead fixable dye to exclude the dead cells and followed by intracellular staining for Caspase3 antibody to identify the apoptotic cells and was measured by flow cytometry (Attune NxT, Thermo Fisher). The live tumor cell count for each condition was calculated by normalizing to the precision count beads added to each sample.\nThe live tumor cell count was then normalized to the DMSO control (considered as 100% viable) to calculate the percentage of viable cells remaining after treatment. The normalized percentage of tumor cells was then represented as a heat map using Graph Pad Prism 8.0.0 to indicate the degree of tumor toxicity for each of the combinations (FIG. 1). Based on the data shown in FIG. 1, synergy/additivity calculations were performed using the HSA and Bliss Independence Model.\nFor apoptosis analysis, the percentage of apoptosis combining both “early” (Caspase 3 positive and Live-Dead fixable dye negative) and “late” apoptosis (Caspase 3 and Live-Dead fixable dye positive) cell gates subtracting the baseline DMSO value was graphed using GraphPad Prism 8.0.0.0. The Ymax (maximal percentage of apoptosis achieved) values from apoptosis curves were calculated by performing a nonlinear regression curve fitting using log(agonist) vs. normalized response—Variable slope analysis and identifying the maximum value on GraphPad Prism 8.0.0 (Table 8)."}},
  "data": [
    {"smiles": "O=C1CC[C@H](N2C(=O)c3cccc(NCc4ccc(CN5CC(N6CCOCC6)C5)cc4F)c3C2=O)C(=O)N1", "note": "[Compound 1, (S)-2-(2,6-dioxopiperidin-3-yl)-4-((2-fluoro-4-((3-morpholinoazetidin-1-yl)methyl)benzyl)amino)isoindoline-1,3-dione]", "values": [
      {"measurement": "% Viable Cells Emax (percentage of tumor cells remaining)", "setting": "EHEB CLL cell line", "value": 28.68, "unit": "%"},
      {"measurement": "% Viable Cells Emax (percentage of tumor cells remaining)", "setting": "CII CLL cell line", "value": 78.23, "unit": "%"},
      {"measurement": "Ymax of Pt 11 (%)", "setting": "[1]; Pt 11", "value": 18.81, "unit": "%"},
      {"measurement": "Ymax of Pt 12 (%)", "setting": "[1]; Pt 12", "value": 19.11, "unit": "%"},
      {"measurement": "Ymax of Pt 13 (%)", "setting": "[1]; Pt 13", "value": 29.40, "unit": "%"},
      {"measurement": "Ymax of Pt 14 (%)", "setting": "[1]; Pt 14", "value": 24.11, "unit": "%"}
    ]}
  ]
}
